# According to patent US7037656B2, “Methods and compositions for identifying ligands for nuclear receptors” (priority 2000, dated 2006):
# What was measured:
# Test in all cases: Yeast 6x EcRE-lacZ β-galactosidase transactivation assay
# [1] = test system: Aa ΔA/B EcR + RXRβ + GRIP1; assay type: cell-based, Aedes aegypti; mouse; details: RH 5992 10 μM, 4 hours, DMSO control 0.231
# Method: (§1) The human RXR α (Genbank accession number X52773), mouse RXR β (Genbank accession number X66224) or mouse RXR γ (Genebank accession number X66225) subtypes were expressed in yeast-E. coli multicopy 2μ expression plasmids under regulation of CUP1 promoter with the LEU2 selective marker (1).
# (§2) Briefly, yeast cells are cultured in 5 mL of YPD liquid medium overnight at 30° C. The cell culture was diluted 1:20 in YPD media and further grown until cell density reached an O.D of 0.6. at OD600. The cells were pelleted by centrifugation and washed with 10 mL of TE+0.1M lithium acetate. Cells are then resuspended in 10 mL TE+0.1M lithium acetate and incubated at 30° C. for 1 hour. Cells are collected and resuspended in 0.5 mL of TE+ 0.1M lithium acetate. […]
# (§3) Using the transformation method described above, yeast were co-transformed with a reporter gene as shown in FIG. 2 and the expression vector encoding the full-length Aedes aegypti ecdysone receptor, Aa EcR (FIG. 7A) in the presence or absence of the Aa EcR heterodimer partner, Aa USP (a or b form, FIGS. 8A and 8B respectively). […] As the N-terminal portion of the AaEcR receptor is reported to play a role in ligand independent transactivation, an expression vector containing an N-terminal deletion in the Aa EcR was constructed (see FIG. 7B) and assessed in the β-galactosidase assays described above. […]
# [2] = target: T1, Aa ΔA/B EcR + RXRγ + GRIP1 (Aedes aegypti, UniProt P49880); assay type: cell-based, Aedes aegypti; mouse; details: RH 5992 10 μM, 4 hours, DMSO control 0.496
# T1 construct: ubiquitin (human, 76 aa) (N, cleaved yes); expressed in transfected cells
# Method: as §1, §2, §3
# [3] = target: T2, Cf ΔA/B EcR + RXR α + GRIP1 (Choristoneura fumiferana, UniProt O77240); assay type: cell-based, Choristoneura fumiferana; human; details: RH 5992 10 μM, 4 hours, DMSO control 0.270
# T2 construct: human ubiquitin (76 aa) (N, cleaved yes); expressed in transfected cells; host or cells: yeast (Saccharomyces cerevisiae)
# Method: as §1
# Briefly, yeast cells are cultured in 5 mL of YPD liquid medium overnight at 30° C. The cell culture was diluted 1:20 in YPD media and further grown until cell density reached an O.D of 0.6. at OD600. The cells were pelleted by centrifugation and washed with 10 mL of TE+0.1M lithium acetate. Cells are then resuspended in 10 mL TE+0.1M lithium acetate and incubated at 30° C. for 1 hour. Cells are collected and resuspended in 0.5 mL of TE+ 0.1M lithium acetate. Aliquots of cells (50 μL), were incubated for 15 minutes at 30° C. with 1–2 μg plasmid DNA in the presence of 5 μg of denatured salmon sperm DNA as DNA carrier. In the case of co-transformation, the indicated plasmids were added simultaneously. 50% polyethyleneglycol of molecular weight 4000, diluted in TE, was added to a final concentration of 35%. DMSO was added to the transformation solution simultaneously to a final concentration 3%. The samples were mixed well by vortexing and incubated for an additional 30 minutes at 30° C. The cell mixture is then heated for 15 minutes at 42° C. […]
# T1 sequence (P49880 with tags, fused parts or gaps): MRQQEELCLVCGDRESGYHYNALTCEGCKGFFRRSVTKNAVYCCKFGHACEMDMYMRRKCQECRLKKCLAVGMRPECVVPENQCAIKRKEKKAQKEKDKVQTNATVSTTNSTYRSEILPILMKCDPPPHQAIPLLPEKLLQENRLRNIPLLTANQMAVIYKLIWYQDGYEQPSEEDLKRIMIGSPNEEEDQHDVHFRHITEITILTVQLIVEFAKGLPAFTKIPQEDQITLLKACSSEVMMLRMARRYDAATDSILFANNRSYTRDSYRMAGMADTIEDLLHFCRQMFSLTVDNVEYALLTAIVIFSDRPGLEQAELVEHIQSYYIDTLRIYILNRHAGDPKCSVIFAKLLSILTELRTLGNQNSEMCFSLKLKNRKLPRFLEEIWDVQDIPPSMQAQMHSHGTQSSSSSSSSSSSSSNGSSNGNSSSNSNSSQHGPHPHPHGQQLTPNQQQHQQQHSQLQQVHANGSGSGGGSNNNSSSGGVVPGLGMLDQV
# T1 sequence (P28705 whole entry partner): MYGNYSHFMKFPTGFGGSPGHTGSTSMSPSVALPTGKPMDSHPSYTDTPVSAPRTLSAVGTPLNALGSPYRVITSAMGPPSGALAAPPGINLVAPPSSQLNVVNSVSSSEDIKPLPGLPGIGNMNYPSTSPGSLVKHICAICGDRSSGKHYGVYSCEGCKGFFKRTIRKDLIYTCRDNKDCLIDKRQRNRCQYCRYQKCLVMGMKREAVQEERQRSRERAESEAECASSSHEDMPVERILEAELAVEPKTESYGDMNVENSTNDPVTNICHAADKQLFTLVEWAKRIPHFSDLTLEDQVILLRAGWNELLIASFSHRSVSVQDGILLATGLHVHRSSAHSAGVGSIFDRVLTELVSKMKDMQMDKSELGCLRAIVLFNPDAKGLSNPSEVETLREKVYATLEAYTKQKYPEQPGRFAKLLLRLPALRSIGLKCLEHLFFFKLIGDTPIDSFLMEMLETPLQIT
# T2 sequence (O77240 entry or part of it, stated change not applied): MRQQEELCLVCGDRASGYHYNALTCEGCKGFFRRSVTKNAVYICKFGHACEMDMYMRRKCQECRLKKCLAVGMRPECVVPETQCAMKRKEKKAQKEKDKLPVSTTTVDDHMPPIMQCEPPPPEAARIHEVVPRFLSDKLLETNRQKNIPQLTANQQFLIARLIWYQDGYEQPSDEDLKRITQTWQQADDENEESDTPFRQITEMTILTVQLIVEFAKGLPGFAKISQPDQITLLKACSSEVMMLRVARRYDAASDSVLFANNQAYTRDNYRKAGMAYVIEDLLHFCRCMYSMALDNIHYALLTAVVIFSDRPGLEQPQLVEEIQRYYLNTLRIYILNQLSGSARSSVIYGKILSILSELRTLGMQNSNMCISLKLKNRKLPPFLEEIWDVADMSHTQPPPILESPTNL
# T2 sequence (P19793 whole entry partner): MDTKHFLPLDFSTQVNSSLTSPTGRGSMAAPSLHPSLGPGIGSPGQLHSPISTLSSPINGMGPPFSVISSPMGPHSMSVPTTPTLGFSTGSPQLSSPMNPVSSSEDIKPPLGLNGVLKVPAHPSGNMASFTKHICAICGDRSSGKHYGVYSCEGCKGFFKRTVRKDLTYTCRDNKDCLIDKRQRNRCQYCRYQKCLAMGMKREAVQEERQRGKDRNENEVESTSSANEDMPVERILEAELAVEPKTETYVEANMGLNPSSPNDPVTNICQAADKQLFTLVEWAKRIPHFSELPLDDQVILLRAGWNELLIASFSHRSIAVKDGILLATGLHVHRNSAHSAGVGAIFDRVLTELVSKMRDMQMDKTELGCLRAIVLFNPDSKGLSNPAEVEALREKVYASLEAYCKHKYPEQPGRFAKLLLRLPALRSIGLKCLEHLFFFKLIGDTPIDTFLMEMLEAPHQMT
compound,measurement,setting,value
"CCc1ccc(C(=O)NN(C(=O)c2cc(C)cc(C)c2)C(C)(C)C)cc1 [RH 5992, tebufenozide]",β-galactosidase activity,[1],1.983
same,β-galactosidase activity,[2],2.666
same,β-galactosidase activity,[3],2.063
